{"source": "ChEMBL document CHEMBL1201862", "about": "“PubChem BioAssay data set” (2004)", "note": "Activity calls are given as the source filed them. For most assays here, no stated cut-off is given here; in the data, actives have a measured EC50 and inactives only a lower limit.", "data": [{"biological_target": "Cytochrome P450 2C9 (Homo sapiens, UniProt P11712)", "sequence (P11712 whole entry)": "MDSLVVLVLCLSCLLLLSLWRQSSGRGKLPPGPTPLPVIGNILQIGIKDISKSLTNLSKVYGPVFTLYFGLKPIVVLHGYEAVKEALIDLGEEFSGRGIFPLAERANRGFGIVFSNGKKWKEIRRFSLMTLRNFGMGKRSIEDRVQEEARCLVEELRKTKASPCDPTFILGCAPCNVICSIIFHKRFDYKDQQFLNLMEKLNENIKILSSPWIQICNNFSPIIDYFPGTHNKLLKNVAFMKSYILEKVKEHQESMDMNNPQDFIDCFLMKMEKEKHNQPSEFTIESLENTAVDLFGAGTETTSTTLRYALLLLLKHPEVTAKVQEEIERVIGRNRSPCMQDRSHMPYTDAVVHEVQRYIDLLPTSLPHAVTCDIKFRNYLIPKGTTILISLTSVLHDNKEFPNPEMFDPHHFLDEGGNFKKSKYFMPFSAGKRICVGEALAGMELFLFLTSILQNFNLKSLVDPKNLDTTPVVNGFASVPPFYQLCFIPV", "settings": "not given", "values": [{"smiles": "O=C(CCS(=O)(=O)c1cccs1)N1CCN(c2ccc(F)cc2)CC1", "AC50": "2.51 µM (inconclusive)"}, {"smiles": "CC(=O)N1CCC(=O)N(C(C)C)c2ccccc21", "AC50": "0.0282 µM (inconclusive)"}, {"smiles": "CCC(=O)NC(NC(=O)CC)C(Cl)Cl", "AC50": "20 µM (inconclusive)"}, {"smiles": "CC(=O)SC[C@@H](Cc1ccccc1)C(=O)NCC(=O)OCc1ccccc1", "note": "[ECADOTRIL]", "AC50": "3.98 µM (inconclusive)"}]}, {"biological_target": "T1, Cytochrome P450 1A2 (Homo sapiens, UniProt P05177)", "T1 sequence (P05177 whole entry)": "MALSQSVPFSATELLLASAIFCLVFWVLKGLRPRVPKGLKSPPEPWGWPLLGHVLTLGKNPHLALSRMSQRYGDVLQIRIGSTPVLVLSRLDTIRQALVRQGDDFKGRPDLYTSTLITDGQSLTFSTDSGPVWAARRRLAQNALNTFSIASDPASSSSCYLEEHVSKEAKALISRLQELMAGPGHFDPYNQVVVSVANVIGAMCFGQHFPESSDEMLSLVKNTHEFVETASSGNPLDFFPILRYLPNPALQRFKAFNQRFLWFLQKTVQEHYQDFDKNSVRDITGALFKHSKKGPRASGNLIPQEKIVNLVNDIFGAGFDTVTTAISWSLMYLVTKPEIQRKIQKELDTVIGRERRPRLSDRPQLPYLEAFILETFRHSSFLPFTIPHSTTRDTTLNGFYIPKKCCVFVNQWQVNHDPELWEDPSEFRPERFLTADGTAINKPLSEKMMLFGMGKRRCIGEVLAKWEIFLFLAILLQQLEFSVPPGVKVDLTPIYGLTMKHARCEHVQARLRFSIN", "settings": "not given", "values": [{"smiles": "O=C(COc1ccc2ccccc2c1)N1CCN(CC2CC3C=CC2C3)CC1", "note": "(stereo not drawn)", "AC50": "22.4 µM (inconclusive)"}, {"smiles": "N#CCCn1c(=O)c(-c2ccc(F)cc2)nc2cnc(Oc3cccc(Cl)c3)nc21", "AC50": "0.501 µM (inconclusive)"}, {"smiles": "CN(C)CCCNc1c2c(=O)n(C)c(=O)nc-2n(C)c2ccccc12", "AC50": "5.01 µM (inconclusive)"}, {"smiles": "COc1ccccc1CN1CC[C@@]2(CCCN(S(=O)(=O)c3ccccc3)C2)C1", "AC50": "25.1 µM (inconclusive)"}, {"smiles": "O=C(CCS(=O)(=O)c1cccs1)N1CCN(c2ccc(F)cc2)CC1", "AC50": "31.6 µM (inconclusive)"}, {"smiles": "O=C(O)CCC(=O)c1ccc(-c2ccccc2)cc1", "note": "[FENBUFEN]", "AC50": "12.6 µM (inconclusive)"}]}, {"biological_target": "T2, Corticotropin-releasing factor receptor 2/Corticotropin-releasing factor-binding protein (Homo sapiens, UniProt P24387+Q13324)", "T2 sequence (Q13324 whole entry)": "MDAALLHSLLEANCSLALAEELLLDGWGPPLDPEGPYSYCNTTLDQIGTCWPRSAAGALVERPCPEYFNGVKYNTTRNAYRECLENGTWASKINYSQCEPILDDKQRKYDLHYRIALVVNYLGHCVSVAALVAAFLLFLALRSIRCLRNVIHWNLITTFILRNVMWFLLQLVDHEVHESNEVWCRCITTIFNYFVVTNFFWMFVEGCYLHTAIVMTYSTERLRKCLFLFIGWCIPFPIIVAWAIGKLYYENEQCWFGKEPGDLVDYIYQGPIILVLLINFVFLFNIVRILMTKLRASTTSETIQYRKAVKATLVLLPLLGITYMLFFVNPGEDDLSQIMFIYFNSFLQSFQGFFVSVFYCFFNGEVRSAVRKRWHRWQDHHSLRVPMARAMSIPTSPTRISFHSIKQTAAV", "T2 sequence (P24387 whole entry)": "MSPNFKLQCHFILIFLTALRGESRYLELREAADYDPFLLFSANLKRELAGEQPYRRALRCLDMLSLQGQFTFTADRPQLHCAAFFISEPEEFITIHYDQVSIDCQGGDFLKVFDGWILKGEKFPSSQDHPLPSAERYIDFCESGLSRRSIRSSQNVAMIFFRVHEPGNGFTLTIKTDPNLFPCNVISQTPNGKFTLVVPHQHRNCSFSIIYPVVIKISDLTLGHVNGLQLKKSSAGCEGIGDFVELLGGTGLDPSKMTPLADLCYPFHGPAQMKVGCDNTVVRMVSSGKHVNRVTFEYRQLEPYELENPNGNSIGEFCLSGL", "test": "activators of CRF receptor 2 with binding protein – uHTS hits, confirmation (AID 602473)", "assay_type": "functional", "settings": "read-out: EC50_Mean", "values": [{"smiles": "C=CCN1CCC2(C)c3cc(O)ccc3CC1C2C", "note": "(stereo not drawn)", "EC50": "> 53 µM (inactive)"}, {"smiles": "O=C(CN1CCCC1)Nc1ccccc1Sc1ccccc1", "EC50": "> 53 µM (inactive)"}, {"smiles": "CC(C)c1cc(-c2cc(C(=O)NCc3ccccc3)on2)nc(NCC2CC2)n1", "EC50": "10.2 µM (active)"}, {"smiles": "COc1c(Cl)cc(-c2noc(C)c2C(=O)NCc2ccc3c(c2)OCO3)cc1Cl", "EC50": "> 53 µM (inactive)"}, {"smiles": "COc1ccc(C(=O)c2sc(Nc3cccc(OC)c3)c(C(=O)Nc3cccc(C)c3C)c2N)cc1", "EC50": "> 53 µM (inactive)"}, {"smiles": "CC(OC(=O)c1ccc(S(=O)(=O)NCc2ccco2)cc1)C(=O)Nc1ccc(Cl)cn1", "note": "(stereo not drawn)", "EC50": "4.62 µM (active)"}, {"smiles": "CCOc1ccc(NS(=O)(=O)c2ccc(C(=O)N3CCCC(C)C3)cc2)cc1", "note": "(stereo not drawn)", "EC50": "11.1 µM (active)"}, {"smiles": "CCOC(=O)c1c(-c2ccccc2)csc1NC(=O)/C(C#N)=C\\c1ccc(O)c(OC)c1", "EC50": "6.49 µM (active)"}]}, {"tested_on": "not listed separately", "test": "inhibitors of intracellular T. cruzi replication, confirmation, NIH3T3 host cells, beta-gal luminescence (AID 2044);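 further: luminescent beta-galactosidase reporter signal from transgenic T. cruzi replicating inside host cells; inhibitors lower the luminescence signal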", "assay_type": "functional, cell-based", "settings": "not given", "values": [{"smiles": "c1ccc(CN2CCCC3(CCCN(Cc4nc(COc5ccccc5)no4)C3)C2)cc1", "note": "(stereo not drawn)", "EC50": "0.285 µM (active)"}, {"smiles": "O=C(Nc1ccncc1)c1cc(S(=O)(=O)N2CCN(c3ccccc3)CC2)ccc1Cl", "EC50": "2.56 µM (active)"}, {"smiles": "O=[N+]([O-])c1cc(Oc2cccnc2)cc([N+](=O)[O-])c1", "EC50": "0.503 µM (active)"}, {"smiles": "Cc1ccnc(NC(=O)c2cc([N+](=O)[O-])cc([N+](=O)[O-])c2)c1", "EC50": "0.193 µM (active)"}, {"smiles": "Cc1cccc(-n2c(SCc3ccc([N+](=O)[O-])cc3)nnc2-c2c[nH]c3ccccc23)c1", "EC50": "1.77 µM (active)"}, {"smiles": "COc1cccc(C(=O)NC2CCN(C(=O)N3c4ccccc4Sc4ccccc43)CC2)c1", "EC50": "2.23 µM (active)"}, {"smiles": "CCCCN(C)CCCNC(=O)c1ccc2c(c1)N(CC)C(=O)c1ccccc1[S+]2[O-]", "note": "(stereo not drawn)", "EC50": "0.238 µM (active)"}, {"smiles": "COc1ccccc1/C=C/C(=O)OCCCN(C)C", "EC50": "0.794 µM (active)"}, {"smiles": "CCOC(=O)/C(=C\\c1ccc([N+](=O)[O-])o1)NC(=O)c1ccccc1", "EC50": "0.995 µM (active)"}, {"smiles": "O=C(NC(=S)Nc1ccc(CN2CCCCC2)cc1)c1cccc(OCc2ccccc2)c1", "EC50": "1.09 µM (active)"}]}, {"tested_on": "not listed separately", "test": "cytotoxicity toward NIH3T3 fibroblasts, dose response, counter-screen, cell-based, ATP luminescence, mouse fibroblasts (AID 2010);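 further: cells exposed to compound for about 90 hours before reading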", "assay_type": "functional", "settings": "not given", "values": [{"smiles": "c1ccc(CN2CCCC3(CCCN(Cc4nc(COc5ccccc5)no4)C3)C2)cc1", "note": "(stereo not drawn)", "EC50": "> 60 µM (not active)"}, {"smiles": "O=C(Nc1ccncc1)c1cc(S(=O)(=O)N2CCN(c3ccccc3)CC2)ccc1Cl", "EC50": "> 30 µM (not active)"}, {"smiles": "O=[N+]([O-])c1cc(Oc2cccnc2)cc([N+](=O)[O-])c1", "EC50": "> 60 µM (not active)"}, {"smiles": "Cc1ccnc(NC(=O)c2cc([N+](=O)[O-])cc([N+](=O)[O-])c2)c1", "EC50": "> 60 µM (not active)"}, {"smiles": "Cc1cccc(-n2c(SCc3ccc([N+](=O)[O-])cc3)nnc2-c2c[nH]c3ccccc23)c1", "EC50": "> 60 µM (not active)"}, {"smiles": "COc1cccc(C(=O)NC2CCN(C(=O)N3c4ccccc4Sc4ccccc43)CC2)c1", "EC50": "> 60 µM (not active)"}, {"smiles": "CCCCN(C)CCCNC(=O)c1ccc2c(c1)N(CC)C(=O)c1ccccc1[S+]2[O-]", "note": "(stereo not drawn)", "EC50": "> 60 µM (not active)"}, {"smiles": "COc1ccccc1/C=C/C(=O)OCCCN(C)C", "EC50": "> 30 µM (not active)"}, {"smiles": "CCOC(=O)/C(=C\\c1ccc([N+](=O)[O-])o1)NC(=O)c1ccccc1", "EC50": "> 60 µM (not active)"}, {"smiles": "O=C(NC(=S)Nc1ccc(CN2CCCCC2)cc1)c1cccc(OCc2ccccc2)c1", "EC50": "> 60 µM (not active)"}]}]}
